Key:
Carbonic anhydrase 2 [1] = molecular target: T1, Carbonic anhydrase 2 (Homo sapiens, UniProt P00918); assay: In vitro inhibitory activity against human Carbonic anhydrase II; conditions: read-out: I50
Carbonic anhydrase 2 [2] = molecular target: T1, Carbonic anhydrase 2
Description: In vitro inhibition of human Carbonic Anhydrase II

Oryctolagus cuniculus [3] = organism: Oryctolagus cuniculus; assay: Corneal penetration rate constant (k) for excised denuded cornea of albino rabbit; type: functional
[4] = Cleavage by corneal esterase at 37 degree C and at pH 7.4; type: ADME, tissue-based, Cornea
Oryctolagus cuniculus [5] = organism: Oryctolagus cuniculus; assay: Corneal penetration rate constant (k) for excised intact cornea of albino rabbit; type: functional
Oryctolagus cuniculus [6] = organism: Oryctolagus cuniculus; assay: Change in intraocular pressure in Albino rabbit when 2% suspension of compound bilaterally instilled in a single dose of 50 microL determined by recovery rate assay; type: functional, Eye
Oryctolagus cuniculus [7] = organism: Oryctolagus cuniculus; assay: Change in intraocular pressure in Albino rabbit when 10% of compound suspension bilaterally instilled in 3 doses of 20, 15 and 15 microL at 5 minute intervals determined by recovery rate assay; type: functional, Eye
Oryctolagus cuniculus [8] = assay: Maximum decrease in intraocular pressure in Albino rabbit during 5 hours observation period after topical instillation of 1% suspension in alpha-Chymotrypsin assay; type: functional, Eye
Oryctolagus cuniculus [9] = organism: Oryctolagus cuniculus; assay: Change in intraocular pressure in Albino rabbit when 5% of compound suspension bilaterally instilled in 3 doses of 20, 15 and 15 microL at 5 minute intervals determined by recovery rate assay; type: functional, Eye
Oryctolagus cuniculus [10] = organism: Oryctolagus cuniculus; assay: Change in intraocular pressure in Albino rabbit when 1% suspension of compound bilaterally instilled in a single dose of 50 microL determined by recovery rate assay; type: functional, Eye
Oryctolagus cuniculus [11] = assay: Maximum decrease in intraocular pressure in Albino rabbit during 5 hours observation period after topical instillation of 0.5% suspension in alpha-Chymotrypsin assay; type: functional, Eye
Oryctolagus cuniculus [12] = assay: Maximum decrease in intraocular pressure in Albino rabbit during 5 hours observation period after topical instillation of 1% suspension; type: functional, Eye
[13] = In vitro susceptibility to nucleophilic attack by reduced glutathione at 37 degree C and at pH 7.4; type: ADME
Oryctolagus cuniculus [14] = assay: Maximum decrease in intraocular pressure in Albino rabbit during 5 hours observation period after topical instillation of 0.5% suspension; type: functional, Eye
Oryctolagus cuniculus [15] = organism: Oryctolagus cuniculus; assay: Change in intraocular pressure in Albino rabbit when 2% of compound suspension instilled in a single dose of 50 microL determined by recovery rate assay
Oryctolagus cuniculus [16] = organism: Oryctolagus cuniculus; assay: % change in intraocular pressure in Albino rabbit when 10% suspension bilaterally instilled in 3 divided doses of 20, 15 and 15 microL at 5 minute intervals determined by recovery rate assay; type: functional
Oryctolagus cuniculus [17] = assay: Maximum decrease in intraocular pressure in Albino rabbit during 5 hours observation period after topical instillation of 5% suspension; type: functional, Eye
Oryctolagus cuniculus [18] = assay: Maximum decrease in intraocular pressure in Albino rabbit during 5 hours observation period after topical instillation of 5% suspension in alpha-Chymotrypsin assay; type: functional, Eye

SMILES: CC(C)(C)C(=O)Oc1ccc2nc(S(N)(=O)=O)sc2c1N
- IC50 (Carbonic anhydrase 2 [1]): 25 nM

SMILES: NS(=O)(=O)c1nc2cc(O)ccc2s1
- IC50 (Carbonic anhydrase 2 [2]): 5 nM

SMILES: COCCOC(C)(C)C(=O)Oc1ccc2nc(S(N)(=O)=O)sc2c1
- K (Oryctolagus cuniculus [3]): 0.015 h⁻¹
- IC50 (Carbonic anhydrase 2 [2]): 1.4 nM
- half-life [4]: 72 min
- K (Oryctolagus cuniculus [5]): 0.0097 h⁻¹

SMILES: CCOCCOCCOC(C)(C)C(=O)Oc1ccc2nc(S(N)(=O)=O)sc2c1
- Change (Oryctolagus cuniculus [6]): -21%
- IC50 (Carbonic anhydrase 2 [2]): 3.2 nM
- Change (Oryctolagus cuniculus [7]): -22%
- Pressure (Oryctolagus cuniculus [8]): -9 mmHg

SMILES: CCCC(=O)Oc1ccc2sc(S(N)(=O)=O)nc2c1
- IC50 (Carbonic anhydrase 2 [2]): 4 nM
- Change (Oryctolagus cuniculus [7]): -54%

SMILES: CN(C)OS(=O)(=O)c1ccc2nc(S(N)(=O)=O)sc2c1
- IC50 (Carbonic anhydrase 2 [2]): 1.2 nM

SMILES: CCCC(=O)Oc1ccc2nc(S(N)(=O)=O)sc2c1
- Change (Oryctolagus cuniculus [9]): -46%
- Change (Oryctolagus cuniculus [10]): -25%
- Pressure (Oryctolagus cuniculus [11]): -5.5 mmHg
- Change (Oryctolagus cuniculus [6]): -30%
- K (Oryctolagus cuniculus [3]): 0.0202 h⁻¹
- IC50 (Carbonic anhydrase 2 [2]): 3.2 nM
- half-life [4]: 6 min
- Change (Oryctolagus cuniculus [7]): -50%
- K (Oryctolagus cuniculus [5]): 0.054 h⁻¹
- Pressure (Oryctolagus cuniculus [8]): -6.8 mmHg

SMILES: CC(C)COC(=O)Oc1ccc2nc(S(N)(=O)=O)sc2c1
- Change (Oryctolagus cuniculus [9]): -54%
- K (Oryctolagus cuniculus [3]): 0.0212 h⁻¹
- IC50 (Carbonic anhydrase 2 [2]): 2.2 nM
- Pressure (Oryctolagus cuniculus [12]): -6.7 mmHg
- Reaction [13]: 50%
- half-life [4]: 7 min
- Change (Oryctolagus cuniculus [7]): -46%
- K (Oryctolagus cuniculus [5]): 0.0812 h⁻¹
- Pressure (Oryctolagus cuniculus [14]): -5.7 mmHg
- Change (Oryctolagus cuniculus [15]): -22%

SMILES: CCN(CC)CC1CCC(C(=O)Oc2ccc3nc(S(N)(=O)=O)sc3c2)CC1 (configuration not stated)
- IC50 (Carbonic anhydrase 2 [2]): 2.8 nM

SMILES: CC(=O)Oc1ccc2nc(S(N)(=O)=O)sc2c1
- Change (Oryctolagus cuniculus [9]): -42%
- Change (Oryctolagus cuniculus [10]): -10%
- Change (Oryctolagus cuniculus [6]): -35%
- K (Oryctolagus cuniculus [3]): 0.0217 h⁻¹
- IC50 (Carbonic anhydrase 2 [2]): 2 nM
- half-life [4]: 22 min
- Change (Oryctolagus cuniculus [7]): -47%
- K (Oryctolagus cuniculus [5]): 0.0165 h⁻¹
- Pressure (Oryctolagus cuniculus [8]): -8.8 mmHg

SMILES: COC(C)(C)C(=O)Oc1ccc2nc(S(N)(=O)=O)sc2c1
- K (Oryctolagus cuniculus [3]): 0.019 h⁻¹
- IC50 (Carbonic anhydrase 2 [2]): 1.2 nM
- half-life [4]: 36 min
- K (Oryctolagus cuniculus [5]): 0.0222 h⁻¹

SMILES: CN(C)C(=O)Oc1ccc2nc(S(N)(=O)=O)sc2c1
- Change (Oryctolagus cuniculus [9]): 2%
- IC50 (Carbonic anhydrase 2 [2]): 1.6 nM
- Change (Oryctolagus cuniculus [7]): -32%

SMILES: CCCCCC(=O)Oc1ccc2nc(S(N)(=O)=O)sc2c1
- K (Oryctolagus cuniculus [3]): 0.0182 h⁻¹
- IC50 (Carbonic anhydrase 2 [2]): 4 nM
- half-life [4]: 2 min
- K (Oryctolagus cuniculus [5]): 0.0152 h⁻¹

SMILES: CCOP(=O)(OCC)Oc1ccc2nc(S(N)(=O)=O)sc2c1
- IC50 (Carbonic anhydrase 2 [2]): 1.8 nM
- Change (Oryctolagus cuniculus [7]): -22%

SMILES: COc1cccc(OC)c1C(=O)Oc1ccc2nc(S(N)(=O)=O)sc2c1
- IC50 (Carbonic anhydrase 2 [2]): 4 nM

SMILES: CCCCCCCC(=O)Oc1ccc2nc(S(N)(=O)=O)sc2c1
- Change (Oryctolagus cuniculus [9]): -29%
- Change (Oryctolagus cuniculus [6]): -16%
- IC50 (Carbonic anhydrase 2 [1]): 1.6 nM
- Change (Oryctolagus cuniculus [7]): -33%
- Pressure (Oryctolagus cuniculus [8]): -5 mmHg

SMILES: CCOC(=O)Oc1ccc2nc(S(N)(=O)=O)sc2c1
- Change (Oryctolagus cuniculus [16]): -29%
- K (Oryctolagus cuniculus [3]): 0.0145 h⁻¹
- IC50 (Carbonic anhydrase 2 [2]): 6.8 nM
- half-life [4]: 19 min
- K (Oryctolagus cuniculus [5]): 0.0402 h⁻¹
- Pressure (Oryctolagus cuniculus [17]): -5.5 mmHg

SMILES: CC(C)C(=O)Oc1ccc2nc(S(N)(=O)=O)sc2c1
- Change (Oryctolagus cuniculus [9]): -33%
- Pressure (Oryctolagus cuniculus [18]): -6.2 mmHg
- Change (Oryctolagus cuniculus [10]): -38%
- Pressure (Oryctolagus cuniculus [11]): -9.3 mmHg
- Change (Oryctolagus cuniculus [6]): -48%
- K (Oryctolagus cuniculus [3]): 0.0162 h⁻¹
- IC50 (Carbonic anhydrase 2 [2]): 6.8 nM
- Reaction [13]: 50%
- half-life [4]: 9 min
- Change (Oryctolagus cuniculus [7]): -30%
- K (Oryctolagus cuniculus [5]): 0.045 h⁻¹
- Pressure (Oryctolagus cuniculus [8]): -6.8 mmHg

SMILES: NS(=O)(=O)c1nc2ccc(O)cc2s1
- Reaction [13]: 27%

SMILES: NS(=O)(=O)c1nc2ccc(OC(=O)C3CCCCC3)cc2s1
- Pressure (Oryctolagus cuniculus [11]): -4.6 mmHg
- K (Oryctolagus cuniculus [3]): 0.0175 h⁻¹
- IC50 (Carbonic anhydrase 2 [2]): 6 nM
- Reaction [13]: 50%
- half-life [4]: 2 min
- Change (Oryctolagus cuniculus [7]): -34%
- K (Oryctolagus cuniculus [5]): 0.0712 h⁻¹
- Pressure (Oryctolagus cuniculus [8]): -9.8 mmHg

SMILES: NS(=O)(=O)c1nc2ccc(OC(=O)/C=C/c3ccccc3)cc2s1
- IC50 (Carbonic anhydrase 2 [1]): 15 nM

SMILES: CCOC(C)(C)C(=O)Oc1ccc2nc(S(N)(=O)=O)sc2c1
- K (Oryctolagus cuniculus [3]): 0.0162 h⁻¹
- IC50 (Carbonic anhydrase 2 [2]): 1.2 nM
- half-life [4]: 64 min
- K (Oryctolagus cuniculus [5]): 0.0373 h⁻¹

SMILES: CN(C)c1ccc(C(=O)Oc2ccc3nc(S(N)(=O)=O)sc3c2)cc1
- IC50 (Carbonic anhydrase 2 [1]): 60 nM
- Change (Oryctolagus cuniculus [7]): 7%

SMILES: NS(=O)(=O)c1nc2ccc(OC(=O)CC3CCCC3)cc2s1
- IC50 (Carbonic anhydrase 2 [1]): 6 nM

SMILES: CCOc1ccc2nc(S(N)(=O)=O)sc2c1 [ETHOXZOLAMIDE]
- Reaction [13]: 36%

SMILES: NS(=O)(=O)c1nc2ccc(OC(=O)Cc3ccc(Cl)cc3)cc2s1
- IC50 (Carbonic anhydrase 2 [1]): 10 nM

SMILES: CC(C)(C)C(=O)Oc1ccc2nc(S(N)(=O)=O)sc2c1
- Change (Oryctolagus cuniculus [9]): -41%
- Pressure (Oryctolagus cuniculus [18]): -9.2 mmHg
- Change (Oryctolagus cuniculus [10]): -16%
- Pressure (Oryctolagus cuniculus [11]): -6.5 mmHg
- Change (Oryctolagus cuniculus [6]): -30%
- Reaction [13]: 50%
- half-life [4]: 38 min
- Change (Oryctolagus cuniculus [7]): -47%
- Pressure (Oryctolagus cuniculus [8]): -8.2 mmHg

SMILES: NS(=O)(=O)c1nc2ccc(OC(=O)c3ccccc3)cc2s1
- Change (Oryctolagus cuniculus [9]): 11%
- K (Oryctolagus cuniculus [3]): 0.0152 h⁻¹
- Reaction [13]: 50%
- half-life [4]: 30 min
- IC50 (Carbonic anhydrase 2 [1]): 8 nM
- Change (Oryctolagus cuniculus [7]): -25%
- K (Oryctolagus cuniculus [5]): 0.035 h⁻¹

SMILES: CN(C)Cc1ccc(C(=O)Oc2ccc3nc(S(N)(=O)=O)sc3c2)cc1
- IC50 (Carbonic anhydrase 2 [1]): 4 nM

SMILES: COCC(=O)Oc1ccc2nc(S(N)(=O)=O)sc2c1
- IC50 (Carbonic anhydrase 2 [2]): 3.5 nM

SMILES: CC(C)(C)OC(=O)Oc1ccc2nc(S(N)(=O)=O)sc2c1
- IC50 (Carbonic anhydrase 2 [2]): 10 nM

SMILES: CCCCCCCCCCCC(=O)Oc1ccc2nc(S(N)(=O)=O)sc2c1
- IC50 (Carbonic anhydrase 2 [1]): 3.1 nM
- Change (Oryctolagus cuniculus [7]): -25%

SMILES: CC(C)(C)C(=O)Nc1c(OC(=O)C(C)(C)C)ccc2nc(S(N)(=O)=O)sc12
- IC50 (Carbonic anhydrase 2 [2]): 32 nM

SMILES: CC(=O)/N=c1/sc(S(N)(=O)=O)nn1C [METHAZOLAMIDE]
- Reaction [13]: 27%
- K (Oryctolagus cuniculus [5]): 0.0041 h⁻¹

SMILES: NS(=O)(=O)c1nc2ccc(OC(=O)Cc3ccccc3)cc2s1
- Change (Oryctolagus cuniculus [9]): 4%
- Pressure (Oryctolagus cuniculus [11]): -2.5 mmHg
- Change (Oryctolagus cuniculus [6]): 13%
- IC50 (Carbonic anhydrase 2 [1]): 30 nM
- Change (Oryctolagus cuniculus [7]): -48%
- Pressure (Oryctolagus cuniculus [8]): -6.8 mmHg

SMILES: CC(=O)Nc1nnc(S(N)(=O)=O)s1 [ACETAZOLAMIDE]
- Reaction [13]: 3%

SMILES: Cn1cccc1C(=O)Oc1ccc2nc(S(N)(=O)=O)sc2c1
- IC50 (Carbonic anhydrase 2 [2]): 2.9 nM
- Change (Oryctolagus cuniculus [7]): -12%

Reference: ChEMBL document CHEMBL1124628, “Topically active carbonic anhydrase inhibitors. 1. O-acyl derivatives of 6-hydroxybenzothiazole-2-sulfonamide” (J Med Chem, 1989)
